# Data from PubChem BioAssay (NCI).
#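 Step 1: Grow cells in 96-well plates. Step 2: Expose to compound for 48 hours at 5 concentrations. Step 3: Interpolate endpoints linearly; if unreached, use highest concentration. TGI denotes the concentration required for complete inhibition of growth.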
# System: HL-60(TB) leukemia
# Assay: DTP human tumour cell line panel, 48 h
row,SMILES,TGI [µM]
1,O=C(NN1C(=O)C(Cl)C1c1ccc(O)cc1)c1ccccc1O (centres undefined),> 100
2,O/N=C1/C(=C/c2ccc(Cl)c(Cl)c2)CCCC1C(NO)c1ccc(Cl)c(Cl)c1 (centres undefined),39
3,CCOc1ccc(N=Nc2ccc3oc(=O)c(/C(C)=N/NC(=O)CC(=O)Nc4cccc(OC)c4)cc3c2)cc1,16.1
4,O=[N+]([O-])c1ccc(C2=Nn3c(nnc3-c3ccccc3)SC2)o1,37.8

# System: HOP-18 NSCLC
# Assay: DTP human tumour cell line panel, 48 h
row,SMILES,TGI [µM]
1,CC(C)NCCCC(C)Nc1ccnc2ccc3nn(C)nc3c12 (centres undefined),> 100
2,O=C(NN1C(=O)C(Cl)C1c1ccc(O)cc1)c1ccccc1O (centres undefined),30.4
3,O/N=C1/C(=C/c2ccc(Cl)c(Cl)c2)CCCC1C(NO)c1ccc(Cl)c(Cl)c1 (centres undefined),30.5
4,CCOc1ccc(N=Nc2ccc3oc(=O)c(/C(C)=N/NC(=O)CC(=O)Nc4cccc(OC)c4)cc3c2)cc1,74.4
5,O=[N+]([O-])c1ccc(C2=Nn3c(nnc3-c3ccccc3)SC2)o1,34.8

# System: HOP-62 NSCLC
# Assay: DTP human tumour cell line panel, 48 h
row,SMILES,TGI [µM]
1,CC(C)NCCCC(C)Nc1ccnc2ccc3nn(C)nc3c12 (centres undefined),> 100
2,O/N=C1/C(=C/c2ccc(Cl)c(Cl)c2)CCCC1C(NO)c1ccc(Cl)c(Cl)c1 (centres undefined),48.2
3,CCOc1ccc(N=Nc2ccc3oc(=O)c(/C(C)=N/NC(=O)CC(=O)Nc4cccc(OC)c4)cc3c2)cc1,31.7
4,O=[N+]([O-])c1ccc(C2=Nn3c(nnc3-c3ccccc3)SC2)o1,> 100

# System: HOP-92 NSCLC
# Assay: DTP human tumour cell line panel, 48 h
row,SMILES,TGI [µM]
1,CCOc1ccc(N=Nc2ccc3oc(=O)c(/C(C)=N/NC(=O)CC(=O)Nc4cccc(OC)c4)cc3c2)cc1,47.4
2,O=[N+]([O-])c1ccc(C2=Nn3c(nnc3-c3ccccc3)SC2)o1,34.1

# System: HT29 colon
# Assay: DTP human tumour cell line panel, 48 h
row,SMILES,TGI [µM]
1,CC(C)NCCCC(C)Nc1ccnc2ccc3nn(C)nc3c12 (centres undefined),> 100
2,O=C(NN1C(=O)C(Cl)C1c1ccc(O)cc1)c1ccccc1O (centres undefined),36.1
3,O/N=C1/C(=C/c2ccc(Cl)c(Cl)c2)CCCC1C(NO)c1ccc(Cl)c(Cl)c1 (centres undefined),32.1
4,O=[N+]([O-])c1ccc(C2=Nn3c(nnc3-c3ccccc3)SC2)o1,52.8

# System: IGROV1 ovarian
# Assay: DTP human tumour cell line panel, 48 h
row,SMILES,TGI [µM]
1,CC(C)NCCCC(C)Nc1ccnc2ccc3nn(C)nc3c12 (centres undefined),> 100
2,O=C(NN1C(=O)C(Cl)C1c1ccc(O)cc1)c1ccccc1O (centres undefined),27.5
3,O/N=C1/C(=C/c2ccc(Cl)c(Cl)c2)CCCC1C(NO)c1ccc(Cl)c(Cl)c1 (centres undefined),38.5
4,CCOc1ccc(N=Nc2ccc3oc(=O)c(/C(C)=N/NC(=O)CC(=O)Nc4cccc(OC)c4)cc3c2)cc1,65.4
5,O=[N+]([O-])c1ccc(C2=Nn3c(nnc3-c3ccccc3)SC2)o1,47.6

# System: K-562 leukemia
# Assay: DTP human tumour cell line panel, 48 h
row,SMILES,TGI [µM]
1,CC(C)NCCCC(C)Nc1ccnc2ccc3nn(C)nc3c12 (centres undefined),> 100
2,O=C(NN1C(=O)C(Cl)C1c1ccc(O)cc1)c1ccccc1O (centres undefined),> 100
3,O/N=C1/C(=C/c2ccc(Cl)c(Cl)c2)CCCC1C(NO)c1ccc(Cl)c(Cl)c1 (centres undefined),63.6
4,CCOc1ccc(N=Nc2ccc3oc(=O)c(/C(C)=N/NC(=O)CC(=O)Nc4cccc(OC)c4)cc3c2)cc1,86.5
5,O=[N+]([O-])c1ccc(C2=Nn3c(nnc3-c3ccccc3)SC2)o1,> 100

# System: KM12 colon
# Assay: DTP human tumour cell line panel, 48 h
row,SMILES,TGI [µM]
1,CC(C)NCCCC(C)Nc1ccnc2ccc3nn(C)nc3c12 (centres undefined),> 100
2,O=C(NN1C(=O)C(Cl)C1c1ccc(O)cc1)c1ccccc1O (centres undefined),29.5
3,O/N=C1/C(=C/c2ccc(Cl)c(Cl)c2)CCCC1C(NO)c1ccc(Cl)c(Cl)c1 (centres undefined),31.9
4,CCOc1ccc(N=Nc2ccc3oc(=O)c(/C(C)=N/NC(=O)CC(=O)Nc4cccc(OC)c4)cc3c2)cc1,> 56.9
5,O=[N+]([O-])c1ccc(C2=Nn3c(nnc3-c3ccccc3)SC2)o1,42.4

# System: KM20L2 colon
# Assay: DTP human tumour cell line panel, 48 h
row,SMILES,TGI [µM]
1,O/N=C1/C(=C/c2ccc(Cl)c(Cl)c2)CCCC1C(NO)c1ccc(Cl)c(Cl)c1 (centres undefined),35.3
2,CCOc1ccc(N=Nc2ccc3oc(=O)c(/C(C)=N/NC(=O)CC(=O)Nc4cccc(OC)c4)cc3c2)cc1,> 31.6
3,O=[N+]([O-])c1ccc(C2=Nn3c(nnc3-c3ccccc3)SC2)o1,53.5

# System: LOX IMVI melanoma
# Assay: DTP human tumour cell line panel, 48 h
row,SMILES,TGI [µM]
1,CC(C)NCCCC(C)Nc1ccnc2ccc3nn(C)nc3c12 (centres undefined),> 100
2,O=C(NN1C(=O)C(Cl)C1c1ccc(O)cc1)c1ccccc1O (centres undefined),31.7
3,CCOc1ccc(N=Nc2ccc3oc(=O)c(/C(C)=N/NC(=O)CC(=O)Nc4cccc(OC)c4)cc3c2)cc1,60.5

# System: LXFL 529 NSCLC
# Assay: DTP human tumour cell line panel, 48 h
row,SMILES,TGI [µM]
1,CC(C)NCCCC(C)Nc1ccnc2ccc3nn(C)nc3c12 (centres undefined),> 100
2,O=C(NN1C(=O)C(Cl)C1c1ccc(O)cc1)c1ccccc1O (centres undefined),33.3
3,O/N=C1/C(=C/c2ccc(Cl)c(Cl)c2)CCCC1C(NO)c1ccc(Cl)c(Cl)c1 (centres undefined),29.5
4,CCOc1ccc(N=Nc2ccc3oc(=O)c(/C(C)=N/NC(=O)CC(=O)Nc4cccc(OC)c4)cc3c2)cc1,33.5
5,O=[N+]([O-])c1ccc(C2=Nn3c(nnc3-c3ccccc3)SC2)o1,29.9

# System: M14 melanoma
# Assay: DTP human tumour cell line panel, 48 h
row,SMILES,TGI [µM]
1,CC(C)NCCCC(C)Nc1ccnc2ccc3nn(C)nc3c12 (centres undefined),> 100
2,O=C(NN1C(=O)C(Cl)C1c1ccc(O)cc1)c1ccccc1O (centres undefined),38.4
3,O/N=C1/C(=C/c2ccc(Cl)c(Cl)c2)CCCC1C(NO)c1ccc(Cl)c(Cl)c1 (centres undefined),34.6
4,CCOc1ccc(N=Nc2ccc3oc(=O)c(/C(C)=N/NC(=O)CC(=O)Nc4cccc(OC)c4)cc3c2)cc1,77.3
5,O=[N+]([O-])c1ccc(C2=Nn3c(nnc3-c3ccccc3)SC2)o1,32

# System: M19-MEL melanoma
# Assay: DTP human tumour cell line panel, 48 h
row,SMILES,TGI [µM]
1,CC(C)NCCCC(C)Nc1ccnc2ccc3nn(C)nc3c12 (centres undefined),> 100
2,O=C(NN1C(=O)C(Cl)C1c1ccc(O)cc1)c1ccccc1O (centres undefined),40.6
3,O/N=C1/C(=C/c2ccc(Cl)c(Cl)c2)CCCC1C(NO)c1ccc(Cl)c(Cl)c1 (centres undefined),33.8
4,CCOc1ccc(N=Nc2ccc3oc(=O)c(/C(C)=N/NC(=O)CC(=O)Nc4cccc(OC)c4)cc3c2)cc1,> 88.1
5,O=[N+]([O-])c1ccc(C2=Nn3c(nnc3-c3ccccc3)SC2)o1,41.1

# System: MALME-3M melanoma
# Assay: DTP human tumour cell line panel, 48 h
row,SMILES,TGI [µM]
1,CC(C)NCCCC(C)Nc1ccnc2ccc3nn(C)nc3c12 (centres undefined),> 100
2,O=C(NN1C(=O)C(Cl)C1c1ccc(O)cc1)c1ccccc1O (centres undefined),34.5
3,O/N=C1/C(=C/c2ccc(Cl)c(Cl)c2)CCCC1C(NO)c1ccc(Cl)c(Cl)c1 (centres undefined),44.4
4,CCOc1ccc(N=Nc2ccc3oc(=O)c(/C(C)=N/NC(=O)CC(=O)Nc4cccc(OC)c4)cc3c2)cc1,37.5
5,O=[N+]([O-])c1ccc(C2=Nn3c(nnc3-c3ccccc3)SC2)o1,47.5

# System: MOLT-4 leukemia
# Assay: DTP human tumour cell line panel, 48 h
row,SMILES,TGI [µM]
1,CC(C)NCCCC(C)Nc1ccnc2ccc3nn(C)nc3c12 (centres undefined),> 100
2,O=C(NN1C(=O)C(Cl)C1c1ccc(O)cc1)c1ccccc1O (centres undefined),> 100
3,O/N=C1/C(=C/c2ccc(Cl)c(Cl)c2)CCCC1C(NO)c1ccc(Cl)c(Cl)c1 (centres undefined),33.8
4,CCOc1ccc(N=Nc2ccc3oc(=O)c(/C(C)=N/NC(=O)CC(=O)Nc4cccc(OC)c4)cc3c2)cc1,> 56
